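Each compound was tested at five concentrations against cells in 96-well plates for 48 hours. Abbreviation: GI50, concentration required for 50% inhibition of growth.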 The source made the active and inactive calls. No stated cut-off is given here; in the data, active = GI50 up to about 1.1 µM and inactive = higher.
How the values were obtained:
Test in all cases: growth of human tumour cells (NCI), 48 h
[1] = system: CCRF-CEM
[2] = system: OVCAR-5
[3] = system: EKVX
[4] = system: 786-0
[5] = system: SK-OV-3
[6] = system: OVCAR-8
[7] = system: SNB-75
[8] = system: HOP-62
[9] = system: SK-MEL-5
[10] = system: SR
[11] = system: SF-295
[12] = system: K562
[13] = system: HT-29
[14] = system: SW-620
[15] = system: HL-60
[16] = system: KM-20L2
[17] = system: HCT-15
[18] = system: HOP-92
[19] = system: NCI-H23
[20] = system: SK-MEL-2
[21] = system: CAKI-1
[22] = system: SF-268
[23] = system: Malme-3M
[24] = system: KM12
[25] = system: NCI-H460
[26] = system: HOP-18
[27] = system: SN12C
[28] = system: RXF 631
[29] = system: NCI-H226
[30] = system: HCT-116
[31] = system: UACC-257
[32] = system: A498
[33] = system: IGROV-1
[34] = system: RXF 393
[35] = system: M14
[36] = system: A549
[37] = system: LOX IMVI
[38] = system: UO-31
[39] = system: M19-MEL
[40] = system: LXFL 529
[41] = system: RPMI-8226
[42] = system: U-251
[43] = system: SNB-19
[44] = system: XF498
[45] = system: SNB-78
[46] = system: OVCAR-4
[47] = system: ACHN
[48] = system: TK-10
[49] = system: COLO 205
[50] = system: SF-539
[51] = system: UACC-62
[52] = system: NCI-H522
[53] = system: OVCAR-3
[54] = system: DLD-1
[55] = system: SK-MEL-28
[56] = system: MOLT-4
[57] = system: DMS-114
[58] = system: DMS-273
[59] = system: HCC 2998

For `C/C(=N\NS(=O)(=O)c1ccc(C)cc1)C(CN1CCOCC1)C(c1ccccc1)c1c(O)c2ccccc2oc1=O` (centres undefined), the GI50 [1] was 37.5 µM (inactive), the GI50 [2] was > 100 µM (inactive) and the GI50 [3] was > 100 µM (inactive). For the same compound, the GI50 [4] was > 100 µM (inactive), the GI50 [5] was > 100 µM (inactive) and the GI50 [6] was > 100 µM (inactive). For the same compound, the GI50 [7] was > 100 µM (inactive), the GI50 [8] was > 100 µM (inactive) and the GI50 [9] was > 100 µM (inactive). For the same compound, the GI50 [10] was 19.7 µM (inactive), the GI50 [11] was 83 µM (inactive) and the GI50 [12] was 53.2 µM (inactive). For the same compound, the GI50 [13] was > 100 µM (inactive), the GI50 [14] was 30.6 µM (inactive) and the GI50 [15] was 30.8 µM (inactive). For the same compound, the GI50 [16] was > 100 µM (inactive), the GI50 [17] was greater than 100 µM and the GI50 [18] was 59.8 µM (inactive). For the same compound, the GI50 [19] was > 100 µM (inactive), the GI50 [20] was > 100 µM (inactive) and the GI50 [21] was > 100 µM (inactive). For the same compound, the GI50 [22] was > 100 µM (inactive), the GI50 [23] was > 100 µM (inactive) and the GI50 [24] was > 100 µM (inactive). For the same compound, the GI50 [25] was > 100 µM (inactive), the GI50 [26] was > 100 µM (inactive) and the GI50 [27] was > 100 µM (inactive). The GI50 [28] was > 100 µM (inactive), the GI50 [29] was > 100 µM (inactive) and the GI50 [30] was > 100 µM (inactive). For the same compound, the GI50 [31] was > 100 µM (inactive), the GI50 [32] was > 100 µM (inactive) and the GI50 [33] was > 100 µM (inactive). The GI50 [34] was 68.2 µM (inactive), the GI50 [35] was > 100 µM (inactive) and the GI50 [36] was > 100 µM (inactive). For the same compound, the GI50 [37] was > 100 µM (inactive), the GI50 [38] was 72.3 µM (inactive) and the GI50 [39] was 99.5 µM (inactive). For the same compound, the GI50 [40] was > 100 µM (inactive), the GI50 [41] was 35.2 µM (inactive) and the GI50 [42] was > 100 µM (inactive). For the same compound, the GI50 [43] was > 100 µM (inactive), the GI50 [44] was > 100 µM (inactive) and the GI50 [45] was > 100 µM (inactive). For the same compound, the GI50 [46] was > 100 µM (inactive), the GI50 [47] was > 100 µM (inactive) and the GI50 [48] was > 100 µM (inactive). The GI50 [49] was 40.8 µM (inactive), the GI50 [50] was > 100 µM (inactive) and the GI50 [51] was > 100 µM (inactive). The GI50 [52] was 59.8 µM (inactive), the GI50 [53] was 89.5 µM (inactive) and the GI50 [54] was > 100 µM (inactive).
For `O=C(CC(=O)Nc1cccc(Cl)c1)NNCC(=O)Nc1nnc(-c2ccccc2)s1`, the GI50 [2] was > 100 µM (inactive), the GI50 [3] was 57.3 µM (inactive) and the GI50 [55] was > 100 µM (inactive). For the same compound, the GI50 [4] was 16.4 µM (inactive), the GI50 [5] was 26.4 µM (inactive) and the GI50 [6] was 20.8 µM (inactive). For the same compound, the GI50 [7] was 9.38 µM (inactive), the GI50 [8] was 21.9 µM (inactive) and the GI50 [9] was 45.8 µM (inactive). The GI50 [10] was 41.2 µM (inactive), the GI50 [11] was > 100 µM (inactive) and the GI50 [12] was 27.4 µM (inactive). The GI50 [13] was 80 µM (inactive), the GI50 [14] was 39.4 µM (inactive) and the GI50 [15] was 25.7 µM (inactive). The GI50 [56] was 34.9 µM (inactive), the GI50 [16] was > 100 µM (inactive) and the GI50 [17] was 39.3 µM. The GI50 [19] was 94.6 µM (inactive), the GI50 [20] was > 100 µM (inactive) and the GI50 [21] was > 100 µM (inactive). The GI50 [22] was 31.8 µM (inactive), the GI50 [24] was > 100 µM (inactive) and the GI50 [25] was 11.1 µM (inactive). For the same compound, the GI50 [26] was 3.62 µM (inactive), the GI50 [27] was > 100 µM (inactive) and the GI50 [28] was > 100 µM (inactive). The GI50 [29] was 22.9 µM (inactive), the GI50 [30] was 24.8 µM (inactive) and the GI50 [31] was 99.1 µM (inactive). The GI50 [57] was 24.4 µM (inactive), the GI50 [32] was 20.8 µM (inactive) and the GI50 [33] was > 100 µM (inactive). The GI50 [35] was 30.4 µM (inactive), the GI50 [36] was > 100 µM (inactive) and the GI50 [37] was 43.2 µM (inactive). For the same compound, the GI50 [38] was 45 µM (inactive), the GI50 [39] was > 100 µM (inactive) and the GI50 [40] was 41.3 µM (inactive). The GI50 [41] was 14.2 µM (inactive), the GI50 [42] was 34 µM (inactive) and the GI50 [43] was 36 µM (inactive). The GI50 [44] was 17.7 µM (inactive), the GI50 [45] was 97.9 µM (inactive) and the GI50 [46] was 2.46 µM (inactive). For the same compound, the GI50 [47] was 39.8 µM (inactive), the GI50 [48] was 45.2 µM (inactive) and the GI50 [49] was > 100 µM (inactive). For the same compound, the GI50 [50] was > 100 µM (inactive), the GI50 [58] was 38.4 µM (inactive) and the GI50 [59] was > 100 µM (inactive). For the same compound, the GI50 [51] was 62.4 µM (inactive), the GI50 [52] was 64.1 µM (inactive) and the GI50 [53] was 32.7 µM (inactive). The GI50 [54] was 58.6 µM (inactive).
For `COc1cc(CCc2ccc(OCCN(C)C)cc2)cc(OC)c1OC`, the GI50 [1] was > 100 µM (inactive), the GI50 [2] was 33.8 µM (inactive) and the GI50 [3] was > 100 µM (inactive). For the same compound, the GI50 [55] was > 100 µM (inactive), the GI50 [4] was > 100 µM (inactive) and the GI50 [6] was > 100 µM (inactive). For the same compound, the GI50 [7] was 45.1 µM (inactive), the GI50 [8] was 84.1 µM (inactive) and the GI50 [9] was 24.1 µM (inactive). For the same compound, the GI50 [10] was 49.8 µM (inactive), the GI50 [11] was > 100 µM (inactive) and the GI50 [12] was 39.5 µM (inactive). The GI50 [13] was 34.2 µM (inactive), the GI50 [14] was > 100 µM (inactive) and the GI50 [15] was 33.7 µM (inactive). For the same compound, the GI50 [56] was 32.6 µM (inactive), the GI50 [16] was 76.9 µM (inactive) and the GI50 [17] was greater than 100 µM. For the same compound, the GI50 [18] was 52.4 µM (inactive), the GI50 [21] was > 100 µM (inactive) and the GI50 [22] was > 100 µM (inactive). The GI50 [23] was 93.3 µM (inactive), the GI50 [24] was > 100 µM (inactive) and the GI50 [25] was > 100 µM (inactive). For the same compound, the GI50 [26] was > 100 µM (inactive), the GI50 [27] was > 100 µM (inactive) and the GI50 [28] was 88.7 µM (inactive). The GI50 [29] was 79.6 µM (inactive), the GI50 [30] was 60.4 µM (inactive) and the GI50 [31] was 72.4 µM (inactive). For the same compound, the GI50 [57] was 47.8 µM (inactive), the GI50 [32] was 76 µM (inactive) and the GI50 [33] was > 100 µM (inactive). The GI50 [34] was 41.8 µM (inactive), the GI50 [35] was 68.4 µM (inactive) and the GI50 [36] was > 100 µM (inactive). For the same compound, the GI50 [37] was 34.8 µM (inactive), the GI50 [38] was 49.9 µM (inactive) and the GI50 [39] was > 100 µM (inactive). The GI50 [40] was 77.6 µM (inactive), the GI50 [41] was 28.6 µM (inactive) and the GI50 [42] was > 100 µM (inactive). The GI50 [43] was > 100 µM (inactive), the GI50 [44] was 38.5 µM (inactive) and the GI50 [45] was > 100 µM (inactive). The GI50 [46] was > 100 µM (inactive), the GI50 [47] was > 100 µM (inactive) and the GI50 [48] was 78.9 µM (inactive). For the same compound, the GI50 [49] was 20.3 µM (inactive), the GI50 [50] was > 100 µM (inactive) and the GI50 [58] was > 100 µM (inactive). The GI50 [51] was > 100 µM (inactive), the GI50 [52] was 83.8 µM (inactive) and the GI50 [53] was 64.1 µM (inactive). For the same compound, the GI50 [54] was > 100 µM (inactive).
